Measurements reported in patent US20250171821A1, “HIF-1 ACTIVATORS AND USES THEREOF” (Ramot at Tel-Aviv University Ltd., priority 2022, published 2025).
Entries after “also recorded” stand apart in the source; their conditions may differ. Like-named read-outs stand apart in the source and are kept apart here.

Legend:
osteoblasts = test: Cell-Titer assay of cellular ATP levels, osteoblasts; assay type: cell-based; conditions: 48 hours
Description: MG-63 human osteosarcoma cell lines were obtained from the American Type Culture Collection (ATCC, Manassas, VA, USA). Cells were cultured in α-MEM supplemented with 10% FCS, 100 U/ml penicillin, and […] streptomycin at 37° C. in a humidified atmosphere incubator containing 5% CO2. Before treatment with ML228, 5,000 and 50,000 cells/well were seeded in a 96 or 24 well-plate, respectively.
(§1) The live/dead viability assay (cat #04511-1KT-F Merck, Germany) was used according to the manufacturer's protocol. Briefly, cells were incubated in a medium supplemented with the indicated concentrations of ML228 for 48 hours. Fluorescein diacetate (6.6 μg/mL) and propidium iodide (5 μg/mL) (Merck, NJ, USA) were prepared in DMEM and added to the cells. Confocal images were captured after addition of the dyes with ZEISS LSM 900, Laser Scanning Microscope. Fluorescence readouts were obtained with ex/em of 490/515 nm and 535/617 nm for green and red, respectively. Cellular ATP levels were quantified using the cell-titer assay (Promega, WI, USA cat #G7570).

fibroblasts = test: Cell-Titer assay of cellular ATP levels, fibroblasts; assay type: cell-based; conditions: for IC50: Homo sapiens, Fibroblast
Excerpt: (§2) Human fibroblasts were isolated from fragments of healthy masticatory oral mucosa (from the posterior hard palate) collected during periodontal surgeries. Informed consent was obtained from all patients. Shallow tissue samples (without submucosa) with a diameter of approximately 2 mm were excised using a #15C scalpel blade. Exclusion criteria for potential tissue donors were smoking, any systemic disease, pregnancy or lactation, or a history of periodontal disease. Cells were separated into connective tissue and epithelium using dispase II (Sigma-Aldrich, Rehovot, Israel) at 2 mg/mL for two hours at 37° C.
as §1

MG-63 cells = test: live/dead viability assay, osteoblasts; assay type: cell-based; conditions: MG-63 osteoblasts, ML228 0.62 and 5 μM, 48 hours
Description: as §1

[1] = tested on: human gingival fibroblasts cells (HGF); test: Collagen-I immunofluorescence in human fibroblasts treated with ML228; assay type: cell-based; conditions: 48 hours
Excerpt: as §2
Cells were cultured to sub-confluence on a 96-well plate culture plate or on round-glass cover slips in a 24 well plate and incubated with ML228 at 37° C. in 5% CO2 for 24-96 hours. Cells were fixed for 20 minutes with 4% paraformaldehyde in phosphate-buffered saline (PBS), washed 3 times with PBS, blocked with 2% bovine serum albumin diluted in PBS, which contains 0.1% Triton X-100 for 20 minutes. Fixed cells were incubated with 1:200 of rabbit anti-human type I collagen (Abcam, Cambridge, UK) for 1 hour at 25° C. […] Fluorescence readouts were obtained with excitation/emission (ex/em) of 495/519 nanometer (nm; green) and 340/488 nm (blue) (for FIGS. 2B and 2D); or with ex/em of 358/461 nm (blue), 495/519 nm (green) and 652/668 nm (red) (for FIG. 5A).
All images were analyzed with the computer-based image analysis system (Image J) using the Fiji 2 software (National Institute of Health). Equal field areas were selected for analysis and quantification of fluorescence signals. Quantification of fluorescence signal intensity measured by color threshold and normalized against β-tubulin intensity. Total collagen was evaluated by total fluorescence area intensity.
The effect of ML228 (chemical structure thereof is depicted in FIG. 1), a known activator of HIF, on fibroblasts and osteoblasts was analyzed. […] Collagen-I levels were evaluated by immunohistochemistry via Collagen-I antibody and a fluorescently-labeled secondary antibody. […]

NIH/3T3 cell line = test: Cell confluence / number of cells per image in NIH/3T3 cells; assay type: cell-based, mouse; conditions: 0.63-5 μM ML228, 48 hours, p<0.0001
Description: Embryonic mouse fibroblast NIH/3T3 cell line (ATCC) were seeded at a concentration of 50*10^3 cells/well on 96 well glass bottom plate (P96-1.5H-N, Cellvis) for the immunofluorescence experiment and on cell culture microplate, 96 well, PS, F-Bottom (655090, greiner) for the viability experiment. The cells were cultured with Dulbecco's modified Eagle's medium (DMEM) supplemented with 10% fetal calf serum, 1% Penicillin-Streptomycin solution and 1% L-glutamine (All purchased from Rhenium). At 24 hours post seeding, cells were treated for another 48 hours by replacing them with the cell medium supplemented with a serial dilution (5-0.02 μM, factor dilution of 2) of the ML228, Daprodustat, Enarodustat, Molidustat, Vadadustat or Roxadustat molecules dissolved in DMSO. The final DMSO concentration in the cell medium was 0.01%. Cells were maintained in an incubator at 37° C. in a humidified atmosphere containing 5% CO2.
Image acquisition and quantification were performed by Incucyte SX5 (Sartorius) using software version 2022B Rev2. A standard scan was done for 9 images per well using 20× objective, 2 optical modules (green at excitation/emission of 453-485 nm/494-533 nm in 300 msec acquisition time, and near-IR at excitation/emission of 648-674 nm/685-756 nm in 400 msec acquisition time, including Phase channel) following immunofluorescence protocol. For the image analysis, 2-6 replicates per condition were used. Using the Basic Analyzer mode, “Phase Object Confluence (%)” was acquired using the Phase channel. This measurement is the percentage of the image area occupied by cells. “Total Collagen-I Integrated Intensity Per Image (GCU×μm^2/Image)” was acquired using the green optical module. GCU stands for Green calibrated Unit, while this measurement is the total sum of the Collagen-I objects' fluorescent intensity in the image. “#Cells (Per image)” was acquired by the near-IR optical module. This measurement was calculated by counting the number of nuclei per image.
Multiple comparisons were performed by ordinary one-way ANOVA followed by Dunnett's post-hoc statistical hypothesis for comparing each condition mean to the control mean. Statistical analysis was done using GraphPad Prism version 10.0.0 for Windows, GraphPad Software, Boston, Massachusetts USA, worldwideweb(dot)graphpad(dot)com. For statistical analysis, significance was set as (*) p≤0.05; (**) p≤0.01; (***) p≤0.001; (****) p≤0.0001 and (ns; not significant) p>0.05.

fibroblast cells = test: live/dead viability assay, fibroblasts; assay type: cell-based; conditions: ML228 0.62 and 5 μM, 48 hours
Description: as §1

## c1ccc(-c2ccc(CNc3nc(-c4ccccn4)nnc3-c3ccccc3)cc2)cc1 [ML228, N-([1,1′-Biphenyl]-4-ylmethyl)-6-phenyl-3-(2-pyridinyl)-1,2,4-triazin-5-amine]
osteoblasts; Homo sapiens, Osteoblast, read-out: IC50 (ATP levels relative to non-treated cells)
  IC50: 567 nM
osteoblasts; increasing ML228 concentrations
  metabolically active cell viability as measured by ATP levels: decrease in metabolically active cell viability
fibroblasts; fibroblasts, 48 hours, read-out: IC50 (ATP levels relative to non-treated cells)
  IC50: 679 nM
fibroblasts; summary statement for the treated cells (fibroblasts and osteoblasts), read-out: IC50 of cellular viability of ML228-treated cells
  IC50: ~600 nM
fibroblasts; fibroblasts, increasing ML228 concentrations, 48 hours
  metabolically active cell viability as measured by ATP levels: decrease in metabolically active cell viability
MG-63 cells
  cell death / cellular toxicity (live/dead assay): without imparting cellular toxicity; also recorded: Almost no dead cells were observed; also recorded: not an increase in cell death
[1]; ML228 above 312 nM, normalized to cell number (DAPI), FIG. 5C
  Collagen-I levels compared to baseline of non-treated cells: more than two-fold higher
[1]; ML228 above 10 μM (10 or 20 μM), HGF cells
  Collagen-I levels at higher concentrations: gradually decrease
[1]; fibroblasts
  concentration at which maximum collagen levels were observed: 5 µM
NIH/3T3 cell line
  cell confluence vs untreated cells: significant reduction
Fibroblast cells
  cell death / cellular toxicity (live/dead assay): without imparting cellular toxicity; also recorded: without imparting cellular death; also recorded: not an increase in cell death
